# Measurements taken from patent publication US6608203B2, “Tetrahydroisoquinoline compounds as estrogen agonists/antagonists” (Pfizer Inc., priority 1999, dated 2003).
# Key:
# male Sprague-Dawley rats = assay: Assay 2: Effect on Prostate Weight; assay type: in vivo, rat; conditions: subcutaneous injection daily for 14 days, compared to vehicle
# Experimental: Three-month-old male Sprague-Dawley rats are administered by subcutaneous injection control vehicle (10% ethanol in water), estradiol (30 μg/kg), testosterone (1 mg/kg), or a test compound according to the present invention daily for 14 days (n=6/group). After 14 days the animals are sacrificed, the prostate is removed, and the wet prostate weight is determined. Mean weight is determined and statistical significance (p<0.05) is determined compared to the vehicle-treated group using the Student's t-test.
# male rats [1] = conditions: cited from earlier work
# [2] = unlike estrogen; cited from earlier work
# male rats [3] = conditions: 200 and 400 mg/kg/day; cited from earlier work
compound,measurement,setting,value
"C[C@]12CC[C@H]3[C@@H](CCC4=CC(=O)CC[C@@]43C)[C@@H]1CC[C@@H]2O [Testosterone, testosterone]",effect on wet prostate weight,male Sprague-Dawley rats; testosterone 1 mg/kg,no effect
"C[C@]12CC[C@@H]3c4ccc(O)cc4CC[C@H]3[C@@H]1CC[C@@H]2O [estrogen, estradiol]",effect on wet prostate weight,male Sprague-Dawley rats; estrogen at 30 μg/kg,significantly reduce prostate weight
"O=C(c1ccc(OCCN2CCCCC2)cc1)c1c(-c2ccc(O)cc2)sc2cc(O)ccc12 [raloxifene, 6-hydroxy-2-(4-hydroxyphenyl)-3-[4-(2-piperidinoethoxy)benzoyl] benzo[b] thiophene]",effect on ventral prostate,male rats [1],regression of the ventral prostate
same,uterine stimulatory effect,[2],minimal uterine stimulatory effect
"CC/C(=C(\c1ccccc1)c1ccc(OCCN(C)C)cc1)c1ccccc1 [tamoxifen, 1-(4-β-dimethylaminoethoxyphenyl)-1,2-diphenyl-but-1-ene]",weights of the testes and secondary sex organs,male rats [3],reduces the weights of the testes and secondary sex organs
